Measurements published in US20120071493A1, “SUBSTITUTED 8-SULFONYL-2,3,4,5-TETRAHYDRO-1H-GAMMA-CARBOLINES, LIGANDS AND PHARMACEUTICAL COMPOSITION; METHOD FOR THE PRODUCTION AND USE OF SAME” (priority 2009, published 2012).

What was measured:
[1] = system: mice; assay: Tail suspension test; format: in vivo; conditions: injected for 4 days in doses of 0.05 mg/kg; 6 minutes test
Experimental: Mice behavior in tail suspension test. Mice were suspended by tail with scotch tape on holder over horizontal surface at a height of about 40 cm, and for 6 minutes the total duration of complete immobility episodes which is considered to be a measure of depressively-like state was registered. Automated computerized detection of motion with videosystem and Any-maze programm were used in test. […] This testifies the decreasing of time of a depressively-like state.

[2] = system: male mice of BALB/c line; assay: Passive Avoidance of mice in the Shuttle Chamber, memory disturbed by Scopolamine; format: in vivo; conditions: 0.2 mg/kg, 30 minutes before training; retention after 24 hours
Experimental: 18.1.1. […] Experiments were carried out in aged male mice of BALB/c line weighing 20-25 grams or male rats of Vistar line weighing 200-250 g. A shuttle chamber (Ugo Basile, Italy) consisted of two sections was used. […] The sections were connected through a hole which could be overlapped by vertical door. The floor of the dark section was made of transverse metal bars on which DC current impulses could be fed. On the first day of experiment 30 minutes before training mice were injected […] with Scopolamine which causes memory disturbance. The animals of trial group were additionally injected with a compound of the general formula 1, for example, compound 1.1.1(4).HCl or 1.2.1(3).HCl, in doses of 0.2 mg/kg. The animals of control group were injected with physiological solution. Each group consisted of 8 animals. The animals were placed in the light section, and latent period of the first entry into the dark chamber was registered. Then the vertical door was closed and the animal was punished by 0.6 mA DC current for 3 seconds. After that the animal was taken back to its home cage. In 24 hours the same animal was placed again in the light section of the shuttle chamber and latent period of its first entry into the dark section, the total time of its stay in the light section and the number of entries into dark section was registered. Each monitoring lasted for 5 minutes. […]

[3] = system: mice; assay: Mice Training in the Morris Water maze, Scopolamine memory impairment; format: in vivo; conditions: intraperitoneally 35-40 minutes before training, with Scopolamine
Experimental: Mice Training in the Morris Water maze. A round pool filled with water at 20-22° C. was used. There was a round ceramic platform of 14 cm height in the pool. Animals's (mice) behavior was registered with an automated computer video system in combination with software package of movement analysis Any-maze (Stoelting Co., CIIIA). Selection of mice suitable for training was carried out before the experiments. For this purpose the platform was placed 1 cm above the water level and an animal was put on the platform for 20 seconds. Then the mouse was sunk into the water on the opposite side of the pool, allowed to find the platform and climb it for 60 seconds, where it was left for 20 seconds. After that the mouse was repeatedly immersed into water on the opposite side of the pool and allowed to find the platform. If it failed in finding the platform within 60 seconds the experimentator helped it to find the platform and climb it. If the mice couldn't find the platform itself in two consecutive attempts it was excluded from the experiment. During the next two days the platform was placed 0.5 cm lower the water level. Every day the mice were given four attempts for finding the platform within 60 seconds. The time interval between the attempts was 20 seconds, during which the mice stayed on the platform. Every day before the first attempt the mice was placed on the platform for 20 seconds. […]

[4] = system: 31 receptors (alpha-adrenoceptors, dopamine, histamine, imidazoline, sigma, norepinephrine and serotonin receptors); assay: Displacement of radio-labelled ligands from 31 receptors (MDS Pharma Services); format: binding
Experimental: The interaction was estimated by the displacement of radio-labeled […] from their complex with the corresponding receptors by compound 1.1.1(4).HCl at its concentration of 10 mkM. […] The interaction was estimated by the displacement of radio-labeled […] from their complex with the corresponding receptors by compound 1.2.1(3).HCl at its concentration of 1 mkM. […] All radio-labelled experiments were carried out by MDS Pharma Services firm ([…].com/Services, Taipei, Taiwan) according to their protocols. Estimation of the results obtained is indicative of wide range of pharmacological activity of γ-carbolines of the general formula 1 towards alpha-adrenoceptors, dopamine receptors, histamine receptors, imidazoline receptors, sigma receptors, norepinephrine receptors and serotonin receptors.

[5] = system: male mice of BALB/c line; assay: Mice Behavior in the Elevated Plus Maze test; format: in vivo; conditions: 0.05 mg/kg and 0.2 mg/kg intraperitoneally
Experimental: The experiments were carried out in aged male mice of BALB/c line weighing about 25 g. Animals were housed 5-7 per cage with water and food available. None of animals was acquainted with experimental set-up before. Each experimental group included 8 animals.
The procedure used was described earlier by Lister (Lister R. G. The use of a plus-maze to measure anxiety in the mouse. Psychopharmacology, 1987; 92:180-185). Plexiglass set-up consisted of two opened arms of 30×5 cm size and two closed arms of 30×5×15 cm size was used. Side arms were closed with transparent plexiglass and were connected with central zone via platform of 5×5 cm size. Opened arms, central platform and floor were made of black plexiglass. The set-up was mounted on a metallic base which was placed 38.5 cm above floor level.
Animals were injected intraperitoneally with placebo, Buspirone (5 mg/kg, 30 minutes before training), Lorazepam (0.05 mg/kg, 60 minutes before training) or with one of the compounds of the general formula 1, for example, compound 1.1.1(4).HCl or compound 1.2.1(3).HCl in doses 0.05 mg/kg and 0.2 mg/kg. Buspirone and Lorazepam were introduced in maximal effective dose, at which side sedative effect and general decrease of exploratory activity (number of arm entries during the test) were not observed yet.
Each mouse was placed in maze center with its head towards the opened arm. Over a period of 5 minutes the sequence and duration of arm entries were registered by means of computer program. Criterion for entry is location of all animal's paws inside the arm at the same time. Index of preference was calculated as ratio of the time spent by animal in opened arms as well as the number of entries into opened arms to the total time spent by it in opened and closed arms or, respectively, to the whole number of entries to arms of both types. The number of defecations left by mouse was regarded as additional parameter characterizing anxiety state.

SMILES	duration of mice complete immobility [1]	effect on amnesia caused by Scopolamine, passive avoidance [2]	effect on memory impairment caused by Scopolamine, Morris water maze [3]	% of radio-labelled ligands displacement ([4]; at 13 of 31 receptors, compound at 10 mkM, FIG. 1) [%]	number of receptors the compound actively interacts with (displacement >60%) ([4]; of 31 receptors, compound at 10 mkM, FIG. 1)	anxiolytic effect in elevated plus maze [5]	interaction with 31 receptors (displacement of radio-labelled ligands) ([4]; FIG. 2, compound at 1 mkM per figure legend)
CN1CCc2c(c3cc(S(=O)(=O)c4ccccc4)ccc3n2C)C1.Cl [1.1.1(4)•HCl, 2,5-dimethyl-8-(phenylsulfonyl)-2,3,4,5-tetrahydro-1H-γ-carboline hydrochloride]	decreased significantly	decrease amnesia	decreasing of memory impairment	> 60	13	well-marked anxiolytic effect	
CN1CCc2[nH]c3ccc(S(=O)(=O)Nc4cccc(F)c4)cc3c2C1.Cl [1.2.1(3)•HCl, 2-methyl-2,3,4,5-tetrahydro-1H-γ-carboline-8-sulfonic acid 3-fluorophenyl amide hydrochloride]	decreased significantly	decrease amnesia	decreasing of memory impairment			well-marked anxiolytic effect	Analogous results
